Data set [1] deals with Mus musculus. The data set can be described thus: Antitumor activity against human MDA-MB-361 cells implanted in mouse assessed as suppression of S6 phosphorylation at 50 mg/kg, iv after 8 hrs. It is filed as functional, organism-based. Set-up: dose 50 mg/kg.
Data set [2] deals with Mus musculus. In words: Antitumor activity against human MDA-MB-361 cells implanted in mouse assessed as […] of cleavage of PARP at 50 mg/kg, iv after 8 hrs. The format is functional, organism-based. Also on record: dose 50 mg/kg.
Data set [3] relates to Mus musculus. The data set can be described thus: Antitumor activity against human MDA-MB-361 cells implanted in mouse assessed as suppression of Akt T308 phosphorylation at 100 mg/kg, iv after 8 hrs. The format is functional, organism-based. Set-up: dose 100 mg/kg.
Data set [4] deals with Mus musculus. In words: Antitumor activity against human MDA-MB-361 cells implanted in mouse assessed as suppression of Akt S473 phosphorylation at 100 mg/kg, iv after 8 hrs. It is filed as functional, organism-based. Also on record: dose 100 mg/kg.
Data set [5] has as its system Mus musculus. The data set can be described thus: Antitumor activity against human MDA-MB-361 cells implanted in mouse assessed as suppression of P70S6K phosphorylation at 100 mg/kg, iv after 8 hrs. The format is functional, organism-based. Set-up: dose 100 mg/kg.
The test system of data set [6] is Mus musculus. In words: Antitumor activity against human MDA-MB-361 cells implanted in mouse assessed as suppression of S6 phosphorylation at 100 mg/kg, iv after 8 hrs. The format is functional, organism-based. Also on record: dose 100 mg/kg.
For data set [7], the system named is Mus musculus. In words: Antitumor activity against human MDA-MB-361 cells implanted in mouse assessed as […] of cleavage of PARP at 100 mg/kg, iv after 8 hrs. The format is functional, organism-based. Also on record: dose 100 mg/kg.
Data set [8] addresses Serine/threonine-protein kinase mTOR (Homo sapiens, UniProt P42345). The data set can be described thus: Inhibition of mTOR by DELFIA.
Data set [9] concerns the target Phosphatidylinositol 4,5-bisphosphate 3-kinase catalytic subunit beta isoform (Homo sapiens, UniProt P42338). The data set can be described thus: Inhibition of PI3Kbeta.
A short description of data set [10]: Solubility at pH 3. It is filed as physicochemical. The note with it: buffer.
Data set [11] is described as follows: Metabolic stability in human liver microsomes assessed as half life. It is filed as ADME, Microsome.
Data set [12] can be described thus: Metabolic stability in mouse liver microsomes assessed as half life. The format is ADME, Microsome. For orientation: Liver microsomes are a subcellular fraction often used to study metabolism.
The subject of data set [13] is Mus musculus. In words: Antitumor activity against human MDA-MB-361 cells implanted in mouse assessed as suppression of Akt T308 phosphorylation at 50 mg/kg, iv after 8 hrs. It is filed as functional, organism-based. Set-up: dose 50 mg/kg.
For data set [14], the system named is Mus musculus. The data set can be described thus: Antitumor activity against human MDA-MB-361 cells implanted in mouse assessed as suppression of Akt S473 phosphorylation at 50 mg/kg, iv after 8 hrs. It is filed as functional, organism-based. Set-up: dose 50 mg/kg.
The test system of data set [15] is Mus musculus. In words: Antitumor activity against human MDA-MB-361 cells implanted in mouse assessed as suppression of P70S6K phosphorylation at 50 mg/kg, iv after 8 hrs. The format is functional, organism-based. Set-up: dose 50 mg/kg.
The nature of data set [16]: Plasma concentration in human MDA-MB-361 cells implanted mouse at 50 mg/kg, iv after 8 hrs. It is filed as ADME, organism-based. Set-up: dose 50 mg/kg, route intravenous.
Data set [17] can be described thus: Drug level in human MDA-MB-361 cells implanted mouse tumor at 50 mg/kg, iv after 8 hrs. The format is ADME, organism-based, Neoplasm. Also on record: dose 50 mg/kg, route intravenous. The note with it: read-out: Drug uptake.
For data set [18], the system named is MDA-MB-361. The data set can be described thus: Antitumor activity against human MDA-MB-361 cells implanted in mouse assessed as inhibition of regrowth at until day 70 at 100 mg/kg, iv once daily for 5 days. It is filed as functional, organism-based. Set-up: dose 100 mg/kg.
Data set [19] deals with MDA-MB-361. In words: Antitumor activity against human MDA-MB-361 cells implanted in mouse assessed as inhibition of regrowth at until day 16 and 20 at 25 mg/kg, iv once daily for 5 days. It is filed as functional, organism-based. Set-up: dose 25 mg/kg.
Data set [20] concerns MDA-MB-361. The data set can be described thus: Antitumor activity against human MDA-MB-361 cells implanted in mouse assessed as inhibition of regrowth at until day 16 and 20 at 50 mg/kg, iv once daily for 5 days. It is filed as functional, organism-based. Also on record: dose 50 mg/kg.
The species named for data set [21] is Mus musculus. The data set can be described thus: Toxicity in mouse assessed as weight loss. The format is organism-based. The note with it: in vivo.
The next data set can be described thus: cells. The note with it: Homo sapiens, MDA-MB-361, 4 h.
A further data set in a line: in vitro. The settings on record: rat, liver microsomes.
The target of data set [22] is Phosphatidylinositol 4,5-bisphosphate 3-kinase catalytic subunit gamma isoform (Homo sapiens, UniProt P48736). The data set can be described thus: Inhibition of human PI3Kgamma by fluorescence polarization format assay.
Sequence of Phosphatidylinositol 4,5-bisphosphate 3-kinase catalytic subunit gamma isoform (P48736 whole entry, canonical isoform): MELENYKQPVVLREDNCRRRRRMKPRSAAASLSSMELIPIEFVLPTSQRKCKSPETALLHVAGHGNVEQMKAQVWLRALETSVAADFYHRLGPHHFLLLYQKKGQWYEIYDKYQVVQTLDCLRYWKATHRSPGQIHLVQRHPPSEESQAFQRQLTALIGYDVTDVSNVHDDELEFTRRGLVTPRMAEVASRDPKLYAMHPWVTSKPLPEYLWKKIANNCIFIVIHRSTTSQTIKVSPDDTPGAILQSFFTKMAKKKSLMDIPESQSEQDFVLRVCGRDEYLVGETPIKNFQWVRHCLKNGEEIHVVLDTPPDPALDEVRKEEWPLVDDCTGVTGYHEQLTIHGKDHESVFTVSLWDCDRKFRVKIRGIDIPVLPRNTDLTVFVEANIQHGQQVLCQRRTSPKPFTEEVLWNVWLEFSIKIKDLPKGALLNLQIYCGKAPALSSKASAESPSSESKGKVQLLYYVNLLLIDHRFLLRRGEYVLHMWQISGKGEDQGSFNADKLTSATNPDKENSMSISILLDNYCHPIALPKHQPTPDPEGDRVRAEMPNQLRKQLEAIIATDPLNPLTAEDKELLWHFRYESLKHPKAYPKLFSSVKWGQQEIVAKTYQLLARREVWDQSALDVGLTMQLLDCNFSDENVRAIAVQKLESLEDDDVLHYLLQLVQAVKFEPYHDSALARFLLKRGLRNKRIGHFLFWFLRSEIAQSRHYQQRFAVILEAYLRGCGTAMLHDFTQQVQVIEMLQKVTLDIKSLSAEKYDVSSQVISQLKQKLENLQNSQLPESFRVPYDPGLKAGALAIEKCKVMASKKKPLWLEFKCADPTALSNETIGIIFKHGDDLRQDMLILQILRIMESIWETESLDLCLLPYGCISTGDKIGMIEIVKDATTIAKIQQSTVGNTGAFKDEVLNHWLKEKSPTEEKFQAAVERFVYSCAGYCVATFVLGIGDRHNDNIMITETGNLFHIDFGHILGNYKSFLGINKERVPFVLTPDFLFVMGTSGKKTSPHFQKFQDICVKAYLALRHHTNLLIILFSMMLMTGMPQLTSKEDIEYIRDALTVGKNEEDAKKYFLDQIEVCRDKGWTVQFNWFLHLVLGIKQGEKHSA
Data set [23] in a line: Inhibition of Akt T308 phosphorylation in human MDA-MB-361 cells by Western blotting. It is filed as cell-based.
In data set [24] the target is Phosphatidylinositol 4,5-bisphosphate 3-kinase catalytic subunit alpha isoform (Homo sapiens, UniProt P42336).
Sequence of Phosphatidylinositol 4,5-bisphosphate 3-kinase catalytic subunit alpha isoform (P42336 whole entry, canonical isoform): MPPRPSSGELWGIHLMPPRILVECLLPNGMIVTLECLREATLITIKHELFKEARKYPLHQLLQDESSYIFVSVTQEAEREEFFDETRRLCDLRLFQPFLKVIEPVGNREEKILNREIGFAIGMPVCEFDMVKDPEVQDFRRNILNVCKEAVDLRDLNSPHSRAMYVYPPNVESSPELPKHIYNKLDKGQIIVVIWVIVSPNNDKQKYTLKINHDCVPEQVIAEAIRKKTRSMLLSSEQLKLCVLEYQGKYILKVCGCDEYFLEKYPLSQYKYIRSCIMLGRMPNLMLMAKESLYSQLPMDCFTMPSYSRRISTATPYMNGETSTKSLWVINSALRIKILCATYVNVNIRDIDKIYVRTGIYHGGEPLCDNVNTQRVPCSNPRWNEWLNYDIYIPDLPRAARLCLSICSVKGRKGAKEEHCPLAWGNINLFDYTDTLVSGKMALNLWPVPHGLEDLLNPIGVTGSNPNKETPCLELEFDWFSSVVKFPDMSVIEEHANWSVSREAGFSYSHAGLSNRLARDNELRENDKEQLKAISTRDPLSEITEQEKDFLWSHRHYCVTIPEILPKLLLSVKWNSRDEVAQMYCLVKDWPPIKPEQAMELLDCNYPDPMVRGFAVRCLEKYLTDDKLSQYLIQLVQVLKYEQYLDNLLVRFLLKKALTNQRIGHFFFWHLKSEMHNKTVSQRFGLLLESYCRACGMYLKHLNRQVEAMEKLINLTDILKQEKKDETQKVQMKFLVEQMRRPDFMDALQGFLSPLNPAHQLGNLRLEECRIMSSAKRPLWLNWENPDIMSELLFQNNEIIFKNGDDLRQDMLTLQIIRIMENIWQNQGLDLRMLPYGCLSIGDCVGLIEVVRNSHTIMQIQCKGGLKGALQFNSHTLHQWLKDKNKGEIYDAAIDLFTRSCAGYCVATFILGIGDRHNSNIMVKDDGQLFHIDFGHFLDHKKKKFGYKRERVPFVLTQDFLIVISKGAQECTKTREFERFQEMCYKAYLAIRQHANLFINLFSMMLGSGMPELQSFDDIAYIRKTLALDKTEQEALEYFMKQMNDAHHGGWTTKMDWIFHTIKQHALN
In data set [25] the test system is MDA-MB-361. The data set can be described thus: cells. The settings on record: Homo sapiens, MDA-MB-361, 72 h.
Another data set deals with PC-3. In words: cells. The settings on record: Homo sapiens, PC-3, 72 h.

The structures appear in SMILES notation. In brackets after ≈: the same amount, converted by molar mass. Activity calls are given as the source filed them. The calls are words filed in the database; no cut-off is given here. Some results are limits rather than exact numbers.

Sequence of Phosphatidylinositol 4,5-bisphosphate 3-kinase catalytic subunit beta isoform (P42338 whole entry, canonical isoform): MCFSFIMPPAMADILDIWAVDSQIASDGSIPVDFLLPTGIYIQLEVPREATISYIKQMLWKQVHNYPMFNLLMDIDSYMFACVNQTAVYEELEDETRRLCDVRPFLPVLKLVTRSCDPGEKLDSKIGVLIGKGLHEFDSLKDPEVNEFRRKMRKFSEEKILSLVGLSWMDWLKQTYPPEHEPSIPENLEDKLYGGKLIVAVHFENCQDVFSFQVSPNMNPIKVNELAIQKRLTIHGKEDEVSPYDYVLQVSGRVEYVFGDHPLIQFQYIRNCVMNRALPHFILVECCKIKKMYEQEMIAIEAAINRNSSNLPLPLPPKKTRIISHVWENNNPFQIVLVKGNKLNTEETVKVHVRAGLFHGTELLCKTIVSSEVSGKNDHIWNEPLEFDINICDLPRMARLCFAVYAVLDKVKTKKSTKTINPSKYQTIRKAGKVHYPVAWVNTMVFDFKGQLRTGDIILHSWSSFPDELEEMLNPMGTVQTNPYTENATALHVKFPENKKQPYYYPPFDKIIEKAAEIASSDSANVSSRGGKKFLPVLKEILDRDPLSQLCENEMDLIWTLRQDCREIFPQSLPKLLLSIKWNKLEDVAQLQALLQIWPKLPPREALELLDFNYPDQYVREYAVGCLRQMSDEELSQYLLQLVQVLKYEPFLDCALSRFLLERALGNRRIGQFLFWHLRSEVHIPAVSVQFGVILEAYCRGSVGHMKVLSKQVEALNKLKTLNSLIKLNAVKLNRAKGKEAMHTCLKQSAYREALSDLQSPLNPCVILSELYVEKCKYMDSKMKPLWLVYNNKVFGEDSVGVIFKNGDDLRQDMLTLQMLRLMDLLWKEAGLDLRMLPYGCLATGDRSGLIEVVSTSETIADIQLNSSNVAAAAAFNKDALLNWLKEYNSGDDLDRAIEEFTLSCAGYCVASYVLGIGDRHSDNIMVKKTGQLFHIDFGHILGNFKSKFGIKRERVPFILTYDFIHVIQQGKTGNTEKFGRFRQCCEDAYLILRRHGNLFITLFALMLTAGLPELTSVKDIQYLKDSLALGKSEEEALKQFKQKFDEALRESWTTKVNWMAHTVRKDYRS

The term IC50 denotes the midpoint of a concentration-inhibition curve. A lower IC50 goes with greater potency in that assay. Usually solubility stands for the dissolved amount per volume that the medium holds. Low readings indicate a poorly soluble substance, high ones a readily soluble substance. For orientation: half-life means the time in which the quantity being followed falls by half. Take `CCn1nnc2c(N3CCOCC3)nc(-c3ccc(NC(=O)Nc4ccc(C(=O)N5CCN(C)CC5)cc4)cc3)nc21`: the outcome in the data set on Mus musculus [1], with Mus musculus [2], in the data set on Mus musculus [3], with Mus musculus [4], with Mus musculus [5] and in the data set with Mus musculus [6] was Active. The outcome with Mus musculus [7], in the data set on Mus musculus [13], in the data set with Mus musculus [14], with Mus musculus [15] and in the data set with MDA-MB-361 [18] was Active. Further, the concentration for half-maximal inhibition (IC50) in data set [8] amounted to 1.7 nM; in data set [9] it was 7 nM; in “cells” it was 5 nM. This compound also displayed a solubility in data set [10] of 100 µg/mL (≈ 175 µM). For the same compound, the half-life is > 30 min in data set [11], > 30 min in [12] and 15 min in “in vitro”. Besides, the concentration at 8 h in data set [16] is 525 ng/mL; in data set [17] it was 2220 ng/mL. In addition, the outcome with MDA-MB-361 [19] and in the data set on MDA-MB-361 [20] was inactive. In addition, in the data set filed under Mus musculus [21], the Activity result is “Non-toxic”.
As for `CC(C)n1nnc2c(N3CCOCC3)nc(-c3ccc(NC(=O)Nc4ccc(CO)cc4)cc3)nc21`, the IC50 in [22] is 24.8 nM; in data set [8], 0.32 nM; in [23], 8 nM; in data set [24] it was 3.5 nM; in the data set with MDA-MB-361 [25] it was < 30 nM; in the data set with PC-3, 55 nM.

The record behind these values is ChEMBL document CHEMBL1157707, “Lead optimization of N-3-substituted 7-morpholinotriazolopyrimidines as dual phosphoinositide 3-kinase/mammalian target of rapamycin inhibitors: discovery of PKI-402” (J Med Chem, 2010).
